Values of other authors, collected in patent US6479541B1, “Amiodarone-containing parenteral administration” (Baxter International, priority 2000, dated 2002).

Settings: dogs, intravenous; literature Gough et al. 1982

polysorbate 80 [Tween 80]
cardiodepression / hypotension: associated with cardiodepression, causing hypotension
